According to ChEMBL document CHEMBL1201862, “PubChem BioAssay data set” (2004):
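Assay format: 96-well plates, 48-hour exposure. The concentration for 50% growth inhibition is given as GI50.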 Activity calls are given as the source filed them. No stated cut-off is given here; in the data, active = GI50 up to about 1.1 µM and inactive = higher.

Tests used:
Assay in all cases: DTP human tumour cell line panel, 48 h
[1] = system: 786-0
[2] = system: A498
[3] = system: A549
[4] = system: ACHN
[5] = system: CAKI-1
[6] = system: CCRF-CEM
[7] = system: COLO 205
[8] = system: DLD-1
[9] = system: DMS-114
[10] = system: DMS-273
[11] = system: EKVX
[12] = system: HCC 2998
[13] = system: HCT-116
[14] = system: HCT-15
[15] = system: HL-60
[16] = system: HOP-18
[17] = system: HOP-62
[18] = system: HT-29
[19] = system: IGROV-1
[20] = system: K562
[21] = system: KM-20L2
[22] = system: KM12
[23] = system: LOX IMVI
[24] = system: LXFL 529
[25] = system: M14
[26] = system: M19-MEL
[27] = system: MOLT-4
[28] = system: Malme-3M
[29] = system: NCI-H226
[30] = system: NCI-H23
[31] = system: NCI-H460
[32] = system: NCI-H522
[33] = system: OVCAR-3
[34] = system: RPMI-8226
[35] = system: RXF 393
[36] = system: RXF 631
[37] = system: SF-268
[38] = system: SF-295
[39] = system: SF-539
[40] = system: SK-MEL-28
[41] = system: SK-MEL-2
[42] = system: SK-OV-3
[43] = system: SN12C
[44] = system: SNB-19
[45] = system: SNB-75
[46] = system: SNB-78
[47] = system: SW-620
[48] = system: TK-10
[49] = system: U-251
[50] = system: UACC-257
[51] = system: UACC-62
[52] = system: UO-31
[53] = system: XF498
[54] = system: HOP-92
[55] = system: OVCAR-4
[56] = system: OVCAR-5
[57] = system: OVCAR-8
[58] = system: SK-MEL-5
[59] = system: SR

Cc1cc(C)c(C(=O)OC(c2ccccc2)C(c2ccccc2)N2CCOCC2)c(C)c1 (stereo not given) was tested, and the GI50 [1] was > 100 µM (inactive), the GI50 [2] was > 100 µM (inactive) and the GI50 [3] was > 100 µM (inactive). For the same compound, the GI50 [4] was > 100 µM (inactive), the GI50 [5] was > 100 µM (inactive) and the GI50 [6] was > 100 µM (inactive). For the same compound, the GI50 [7] was > 100 µM (inactive), the GI50 [8] was > 100 µM (inactive) and the GI50 [9] was > 100 µM (inactive). The GI50 [10] was > 100 µM (inactive), the GI50 [11] was > 100 µM (inactive) and the GI50 [12] was > 100 µM (inactive). The GI50 [13] was > 100 µM (inactive), the GI50 [14] was over 100 µM and the GI50 [15] was 44.6 µM (inactive). The GI50 [16] was > 100 µM (inactive), the GI50 [17] was > 100 µM (inactive) and the GI50 [18] was > 100 µM (inactive). For the same compound, the GI50 [19] was > 100 µM (inactive), the GI50 [20] was > 100 µM (inactive) and the GI50 [21] was > 100 µM (inactive). The GI50 [22] was > 100 µM (inactive), the GI50 [23] was > 100 µM (inactive) and the GI50 [24] was > 100 µM (inactive). For the same compound, the GI50 [25] was > 100 µM (inactive), the GI50 [26] was > 100 µM (inactive) and the GI50 [27] was 93.3 µM (inactive). The GI50 [28] was > 100 µM (inactive), the GI50 [29] was > 100 µM (inactive) and the GI50 [30] was > 100 µM (inactive). The GI50 [31] was > 100 µM (inactive), the GI50 [32] was > 100 µM (inactive) and the GI50 [33] was > 100 µM (inactive). For the same compound, the GI50 [34] was 6.01 µM (inactive), the GI50 [35] was 91 µM (inactive) and the GI50 [36] was > 100 µM (inactive). For the same compound, the GI50 [37] was > 100 µM (inactive), the GI50 [38] was > 100 µM (inactive) and the GI50 [39] was > 100 µM (inactive). For the same compound, the GI50 [40] was > 100 µM (inactive), the GI50 [41] was > 100 µM (inactive) and the GI50 [42] was > 100 µM (inactive). For the same compound, the GI50 [43] was > 100 µM (inactive), the GI50 [44] was > 100 µM (inactive) and the GI50 [45] was > 100 µM (inactive). The GI50 [46] was > 100 µM (inactive), the GI50 [47] was > 100 µM (inactive) and the GI50 [48] was > 100 µM (inactive). For the same compound, the GI50 [49] was > 100 µM (inactive), the GI50 [50] was > 100 µM (inactive) and the GI50 [51] was > 100 µM (inactive). The GI50 [52] was > 100 µM (inactive) and the GI50 [53] was > 100 µM (inactive).
With COc1cccc(NC(=O)CC(=O)NNCC(=O)Nc2nnc(-c3ccc(N(CCC#N)S(=O)(=O)c4ccccc4)cc3)s2)c1 the GI50 [3] was 67.5 µM (inactive), the GI50 [4] was 34.8 µM (inactive) and the GI50 [5] was > 100 µM (inactive). For the same compound, the GI50 [7] was 53 µM (inactive), the GI50 [8] was 45.1 µM (inactive) and the GI50 [9] was 41.6 µM (inactive). The GI50 [10] was 72.1 µM (inactive), the GI50 [11] was 41 µM (inactive) and the GI50 [12] was > 100 µM (inactive). The GI50 [13] was 63.7 µM (inactive), the GI50 [14] was over 100 µM and the GI50 [16] was > 100 µM (inactive). For the same compound, the GI50 [17] was 88.7 µM (inactive), the GI50 [54] was 49.2 µM (inactive) and the GI50 [19] was 96.4 µM (inactive). For the same compound, the GI50 [20] was 37.6 µM (inactive), the GI50 [21] was > 100 µM (inactive) and the GI50 [22] was 63.5 µM (inactive). The GI50 [23] was 75.7 µM (inactive), the GI50 [24] was 66.4 µM (inactive) and the GI50 [26] was 44.1 µM (inactive). The GI50 [27] was 35.7 µM (inactive), the GI50 [28] was 40.7 µM (inactive) and the GI50 [29] was > 100 µM (inactive). The GI50 [30] was 48.3 µM (inactive), the GI50 [32] was 39 µM (inactive) and the GI50 [33] was 78.3 µM (inactive). The GI50 [55] was 65.8 µM (inactive), the GI50 [56] was 78.3 µM (inactive) and the GI50 [57] was > 100 µM (inactive). For the same compound, the GI50 [34] was 66.4 µM (inactive), the GI50 [35] was 56.4 µM (inactive) and the GI50 [36] was > 100 µM (inactive). The GI50 [37] was 82.4 µM (inactive), the GI50 [38] was 87.1 µM (inactive) and the GI50 [39] was > 100 µM (inactive). The GI50 [40] was 55.7 µM (inactive), the GI50 [41] was > 100 µM (inactive) and the GI50 [58] was 37.6 µM (inactive). The GI50 [42] was 30.5 µM (inactive), the GI50 [43] was 89.7 µM (inactive) and the GI50 [44] was > 100 µM (inactive). For the same compound, the GI50 [46] was > 100 µM (inactive), the GI50 [59] was 28.8 µM (inactive) and the GI50 [47] was > 100 µM (inactive). For the same compound, the GI50 [48] was > 100 µM (inactive), the GI50 [49] was 76.9 µM (inactive) and the GI50 [51] was 30.7 µM (inactive). For the same compound, the GI50 [52] was 47.4 µM (inactive) and the GI50 [53] was 73.8 µM (inactive).
CCCCCCCCCCCCCCCC(=O)OCC1OC(N2C(=O)/C(=N\NC(N)=S)c3ccc([N+](=O)[O-])cc32)C(OC(C)=O)C1OC(C)=O (stereo not given) was tested, and the GI50 [1] was > 100 µM (inactive), the GI50 [3] was 56.2 µM (inactive) and the GI50 [4] was 48.5 µM (inactive). The GI50 [5] was > 100 µM (inactive), the GI50 [6] was > 100 µM (inactive) and the GI50 [7] was 37.1 µM (inactive). For the same compound, the GI50 [8] was 77.1 µM (inactive), the GI50 [9] was 66.7 µM (inactive) and the GI50 [10] was > 100 µM (inactive). The GI50 [11] was 39.4 µM (inactive), the GI50 [12] was > 100 µM (inactive) and the GI50 [13] was 29 µM (inactive). The GI50 [14] was 86.1 µM, the GI50 [15] was > 100 µM (inactive) and the GI50 [16] was > 100 µM (inactive). For the same compound, the GI50 [17] was > 100 µM (inactive), the GI50 [54] was 93.5 µM (inactive) and the GI50 [18] was > 100 µM (inactive). The GI50 [19] was > 100 µM (inactive), the GI50 [20] was > 100 µM (inactive) and the GI50 [21] was 57.3 µM (inactive). For the same compound, the GI50 [22] was 74.1 µM (inactive), the GI50 [23] was 99.3 µM (inactive) and the GI50 [24] was 38.7 µM (inactive). For the same compound, the GI50 [25] was 62.2 µM (inactive), the GI50 [26] was > 100 µM (inactive) and the GI50 [27] was > 100 µM (inactive). The GI50 [28] was > 100 µM (inactive), the GI50 [29] was > 100 µM (inactive) and the GI50 [30] was > 100 µM (inactive). The GI50 [31] was > 100 µM (inactive), the GI50 [32] was 36.6 µM (inactive) and the GI50 [33] was 60.3 µM (inactive). The GI50 [55] was > 100 µM (inactive), the GI50 [56] was > 100 µM (inactive) and the GI50 [57] was 52.1 µM (inactive). For the same compound, the GI50 [34] was > 100 µM (inactive), the GI50 [35] was > 100 µM (inactive) and the GI50 [36] was > 100 µM (inactive). For the same compound, the GI50 [37] was > 100 µM (inactive), the GI50 [38] was > 100 µM (inactive) and the GI50 [39] was > 100 µM (inactive). For the same compound, the GI50 [40] was > 100 µM (inactive), the GI50 [41] was > 100 µM (inactive) and the GI50 [58] was 97.5 µM (inactive). For the same compound, the GI50 [42] was 48.4 µM (inactive), the GI50 [43] was > 100 µM (inactive) and the GI50 [44] was > 100 µM (inactive). For the same compound, the GI50 [45] was > 100 µM (inactive), the GI50 [46] was > 100 µM (inactive) and the GI50 [59] was > 100 µM (inactive). The GI50 [47] was > 100 µM (inactive), the GI50 [48] was > 100 µM (inactive) and the GI50 [49] was 78 µM (inactive). For the same compound, the GI50 [50] was > 100 µM (inactive), the GI50 [51] was 69.7 µM (inactive) and the GI50 [53] was > 100 µM (inactive).
